The values that follow are results of earlier work, collected in article PMC6328430, “Radiation dosimetry of [^68Ga]PSMA-11 in low-risk prostate cancer patients” (EJNMMI Physics, 2019).

The conditions of this data set: cited from earlier work.

For the compound `C[11C](=O)O` [[^11C]Acetate], the Effective dose is given as 0.0049 mSv/MBq.
Regarding `C[N+](C)(C[18F])CCO` [[^18F]Choline], the Effective dose was 0.01 mSv/MBq.
